Data taken from paper PMC8333425, “Discovery of a dual Ras and ARF6 inhibitor from a GPCR endocytosis screen” (Nature Communications, 2021).
Several values for one entry are separate records, joined by “and”; a condition that tells them apart may be missing. Equal values may be shown once.

Experiments:
Rho = Rho BRET sensor (PKN-RBD-RlucII / rGFP-CAAX; Gα12/13), AT1R-mediated; assay type: cell-based, human
Description: HEK293SL cells were seeded at a density of 7.5 × 10^5 cells per 100-mm dish and 24 h later, transiently transfected as such. For receptor internalization experiments, cells were transfected with 0.12 μg AT1R-RlucII, B2R-RlucII, or β2AR-RlucII and 0.48 μg of either rGFP-CAAX (to assess removal from the PM) or rGFP-FYVE (to assess accumulation in the endosomes). For β-arrestin recruitment assays, cells were transfected with 0.48 μg of receptor-YFP along with 0.12 μg of β-arrestin-RlucII. For β-arrestin/AP-2 binding experiments, cells were transfected with 1 μg Flag-AT1R, 1 μg β2-Adaptin-YFP, and 0.12 μg β-arrestin2-RlucII. For G protein activation, cells were transfected with 3 μg of sp-Flag-AT1R along with either 4.5 μg of the Gαq-polycistronic BRET sensor or 0.24 μg of the Gαi3-RlucII and 0.6 μg of GFP10-Gγ2 and Gβ1 sensors or 0.12 μg PKN-RBD-RlucII and 0.48 μg of rGFP-CAAX. For PKC activation, cells were transfected with 3 μg of sp-Flag-AT1R and 0.18 μg of the PKC sensor. For GTPase activation experiments, cells were transfected with 1 μg Flag-AT1R, 0.48 μg of rGFP-CAAX, and either 0.12 μg of GGA3-PBD-RlucII, PAK-CRIB-RlucII or Raf-RBD-RlucII. For biosensor validation experiments, cells were additionally transfected with 500 ng Flag-K-Ras-WT, Flag-K-Ras-G12V, Flag-K-Ras-SOS-CAAX, HA-ARF6-WT, HA-ARF6-T27N, Myc-Rac1-WT, Myc-Rac1-Q61L or Myc-Rac1-T17N. For PI3K/Akt activation experiments, cells were transfected with 0.48 μg of rGFP-CAAX and 0.12 μg of Akt (PH)-RlucII. After 18 h of transfection, the media was replaced and cells were divided for subsequent experiments. Cells were detached and seeded onto poly-L-ornithine-coated 96-well flat white bottom plates (BrandTech Scientific) at a density of 2.5 × 10^4 cells per well in media. The next day, cells were washed once with Tyrode’s buffer (140 mM NaCl, 2.7 mM KCl, 1 mM CaCl2, 12 mM NaHCO3, 5.6 mM D-glucose, 0.5 mM MgCl2, 0.37 mM NaH2PO4, 25 mM HEPES, pH 7.4) and left in Tyrode’s buffer. For kinetics of β-arrestin recruitment or β-arrestin binding to receptor and AP-2 experiments, cells were serum starved for 30 min, pretreated with 21 (50 µM) or Barbadin (100 µM) for 30 min, stimulated with 100 nM AngII or 1 µM BK and BRET signals were monitored at indicated times using a Victor X Light plate reader (PerkinElmer). Coelenterazine H (final concentration of 5 µM) was added 3–5 min prior to BRET measurements. Filter set was 460/80 nm and 535/30 nm for detecting the RlucII Renilla luciferase (donor) and YFP (acceptor) light emissions, respectively. The BRET ratio was determined by calculating the ratio of the light emitted by YFP over the light emitted by the RlucII. For G protein activation, cells were serum starved, pretreated with compounds for 30 min, stimulated with 100 nM AngII for 2 min (Gαq, Gαi3, and Rho sensors) or 5 min (PKC sensor). For the kinetics of GTPase and PI3K/Akt activation, cells were serum starved, pretreated with 21 (50 µM) or Wortmannin (200 nM) for 30 min, stimulated with ligand (100 nM AngII or 100 ng/ml EGF) and BRET signals were monitored at indicated times. For concentration-response curves, cells were serum-starved, pretreated with various concentrations of compounds for 30 min and stimulated with ligand (100 nM AngII, 1 µM BK, 10 µM Isoproterenol (Iso) or 100 ng/ml EGF) in Tyrode’s buffer for 30 min for receptor internalization, 10 min for ARF6, 2 min for Rac and Rho activation and 5 min for Ras activation and PI3K/Akt activation. BRET signals were monitored using a Synergy2 (BioTek) microplate reader and coelenterazine 400a (final concentrations of 5 µM) added 3–5 min prior to BRET measurements. Filter set was 410/80 nm and 515/30 nm for detecting the RlucII Renilla luciferase (donor) and rGFP/GFP10 (acceptor) light emissions, respectively. The BRET ratio was determined by calculating the ratio of the light emitted by rGFP/GFP10 over the light emitted by the RlucII.

ARF6 = target: T1, ARF6 (Homo sapiens, UniProt P62330); assay: GST-GGA3-PBD pull-down of EGFR-mediated ARF6 activation in MDA-MB-231 cells; assay type: cell-based; conditions: 50 μM
T1 construct: expressed in transfected cells; host or cells: HEK293SL
T1 sequence (P62330 whole entry, species assumed): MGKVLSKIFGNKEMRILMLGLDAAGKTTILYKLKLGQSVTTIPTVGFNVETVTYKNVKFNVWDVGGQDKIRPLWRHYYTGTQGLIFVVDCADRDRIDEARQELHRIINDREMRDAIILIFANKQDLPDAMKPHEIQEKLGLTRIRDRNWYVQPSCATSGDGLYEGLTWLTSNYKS
Description: (§1) Activation of ARF1, ARF6, Ras, and Rho were assessed by using GST pull-down assays. HEK293SL cells were transiently transfected with 3 µg AT1R-flag only (Ras and Rho) or along with 500 ng HA-ARF6 (ARF6) or HA-ARF1 (ARF1). Forty-eight hours later, the HEK293 or MDA-MB-231 cells were serum-starved for 4 h with DMEM containing 20 mM HEPES then pretreated with DMSO or Rasarfin (50 µM) for 30 min. Cells were then stimulated with 1 µM AngII or 100 ng/ml EGF for 0 and 2 min. Cells were then washed once with ice-cold PBS and lysed for 30 min at 4 °C in 300 µl of lysis buffer (pH 7.5, 50 mM Tris-HCl, 140 mM NaCl, 5 mM MgCl2, 10% glycerol (v/v), 1% Nonidet P-40 (v/v), 1 mM dithiothreitol) supplemented with protease inhibitors (1 mM phenylmethyl-sulfonyl fluoride (PMSF), 10 µg/ml leupeptin, 5 µg/ml aprotinin, 1 µg/ml pepstatin A) and phosphatase inhibitors (20 mM NaF, 0.025 mM pervanadate). The samples were cleared by centrifugation and 30 µl (cell lysates) was kept for assessing total protein contents. The remaining was transferred to fresh tubes with 20 µg of either GST, GST-GGA3-PBD, GST-Raf1-RBD or GST-Rhotekin-RBD coupled to glutathione resin and rotated for 1–2 h at 4 °C. […] ImageLab 5.2 software was used to quantify the digital blots as fold of the amount of pulled down protein over total protein. […]

H-Ras = H-Ras (Homo sapiens, UniProt P01112); assay: GST-Raf1-RBD pull-down of EGFR-mediated H-Ras activation in MDA-MB-231 cells; assay type: cell-based; set-up: endogenous in cells; host or cells: MDA-MB-231; conditions: 50 μM
Sequence of H-Ras (P01112 whole entry): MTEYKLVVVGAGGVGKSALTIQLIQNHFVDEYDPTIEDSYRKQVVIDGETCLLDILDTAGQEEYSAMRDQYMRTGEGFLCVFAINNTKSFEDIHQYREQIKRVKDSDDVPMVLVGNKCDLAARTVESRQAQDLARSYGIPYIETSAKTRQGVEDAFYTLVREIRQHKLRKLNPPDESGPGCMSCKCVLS
Description: as §1

Question: How did the “Gα12/13 engagement by AT1R (BRET sensor)” value (Rho; 50 μM) turn out when CC(C)C(=O)N1CCN(c2ccc(NC(=O)c3cc4ccccc4o3)cc2Cl)CC1 [Compound 21] was run?
Answer: lack of inhibitory effects

Question: What about the “Rho MEAN (Fig.4d)” value (Rho; Log [Comp 21] (M) -4) of the same molecule?
Answer: 111.903

Question: And the “Rho MEAN (Fig.4d)” value (Rho; Log [Comp21] (M) -4.3)?
Answer: 104.855

Question: And the “Rho MEAN (Fig.4d)” value (Rho; Log [Comp21] (M) -5)?
Answer: 98.5192

Question: What about the “Rho MEAN (Fig.4d)” value (Rho; Log [Comp21] (M) -5.3) of the same molecule?
Answer: 89.4095

Question: What about the “Rho MEAN (Fig.4d)” value (Rho; Log [Comp 21] (M) -6) of the same molecule?
Answer: 96.851

Question: What about the “Rho MEAN (Fig.4d)” value (Rho; Log [Comp21] (M) -6.3) of the same molecule?
Answer: 103.786

Question: And the “Rho MEAN (Fig.4d)” value (Rho; Log [Comp 21] (M) -7)?
Answer: 100.394

Question: What about the “Rho BRET sensor signal (S_Fig.4b), single experiments” value (Rho; listed as Comp 21) of the same molecule?
Answer: 0.2652 and 0.266 and 0.2953

Question: And the “AT1R-mediated activation of a Rho BRET sensor” value (Rho; up to 100 µM of 21)?
Answer: did not inhibit

Question: And the “ARF6 activity in MDA-MB-231 cells (pull-down)” value (ARF6)?
Answer: inhibited

Question: What about the “Ras activity in MDA-MB-231 cells (pull-down)” value (H-Ras) of the same molecule?
Answer: inhibited
